Experimental data as given in patent publication US20230023559A1, “ARYLMETHYLENE HETEROCYCLIC COMPOUNDS AS KV1.3 POTASSIUM SHAKER CHANNEL BLOCKERS” (D. E. Shaw Research, LLC, priority 2019, published 2023).

target: T1, Kv1.3 potassium channel (Homo sapiens, UniProt P22001); assay: Kv1.3 potassium channel blocker activity, automated whole-cell patch clamp (Patchliner); type: cell-based; conditions: CHO-K1 cells stably expressing Kv1.3; whole cell current inhibition; read-out: Kv1.3_IC50
T1 construct: expressed in transfected cells
T1 sequence (P22001 whole entry): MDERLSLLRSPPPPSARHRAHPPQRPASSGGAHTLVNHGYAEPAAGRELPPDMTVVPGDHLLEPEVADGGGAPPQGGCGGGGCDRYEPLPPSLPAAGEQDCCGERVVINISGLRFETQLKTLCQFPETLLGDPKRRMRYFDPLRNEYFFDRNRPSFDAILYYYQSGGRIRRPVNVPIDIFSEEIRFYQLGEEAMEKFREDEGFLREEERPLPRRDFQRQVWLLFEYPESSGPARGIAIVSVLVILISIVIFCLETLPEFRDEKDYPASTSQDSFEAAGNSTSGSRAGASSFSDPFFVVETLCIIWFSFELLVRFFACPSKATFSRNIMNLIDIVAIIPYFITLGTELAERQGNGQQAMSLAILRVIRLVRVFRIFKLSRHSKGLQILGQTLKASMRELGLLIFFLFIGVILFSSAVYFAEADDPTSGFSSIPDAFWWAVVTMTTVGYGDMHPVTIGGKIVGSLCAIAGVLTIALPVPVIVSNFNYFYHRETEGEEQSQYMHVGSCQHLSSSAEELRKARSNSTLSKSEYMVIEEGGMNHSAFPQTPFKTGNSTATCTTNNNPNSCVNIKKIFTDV
Experimental: The assay described below is used to evaluate the disclosed compound's activities as Kv1.3 potassium channel blockers.
CHO-K1 cells stably expressing Kv1.3 were grown in DMEM containing 10% heat-inactivated FBS, 1 mM Sodium Pyruvate, 2 mM L-Glutamine and G418 (500 μg/ml).
All compounds were dissolved in DMSO at 30 mM.
The currents were evoked by applying 100 ms depolarizing pulses from −90 mV (holding potential) to +40 mV were applied with 0.1 Hz frequency. […] 10 second breaks were used between pulse trains (see Table A below).
Data were sampled at 10 kHz without filtering. Passive leak currents were subtracted online using a P/4 procedure (HEKA Elektronik Dr. Schulze GmbH). […] Total compound incubation time before the next pulse train was not longer than 10 seconds. Peak current inhibition was observed during compound equilibration.

IC50, < 0.5 µM:
O=S(=O)([C@H]1CCNC1)N1CCC([C@@H](O)c2cc(Cl)c(Cl)cc2O)CC1 (single isomer, unassigned; isomer 1) [Compound 124, 4,5-dichloro-2-(hydroxy(1-(pyrrolidin-3-ylsulfonyl)piperidin-4-yl)methyl)phenol Isomer 1]
N[C@@H](c1cc(Cl)c(Cl)cc1O)C1CCN(C(=O)c2c[nH]c(=O)c(Cl)c2)CC1 [Compound 255, 5-[4-[(R)-amino(4,5-dichloro-2-hydroxyphenyl)methyl]piperidine-1-carbonyl]-3-chloro-1H-pyridin-2-one]
CC[C@@H](N)C(=O)N1CCC([C@@H](N)c2cc(Cl)c(Cl)cc2O)CC1 [Compound 88, (R)-2-amino-1-(4-((R)-amino(4,5-dichloro-2-hydroxyphenyl)methyl)piperidin-1-yl)butan-1-one trifluoroacetic acid]
N[C@@H](c1cc(Cl)c(Cl)cc1O)C1CCN(C(=O)c2c[nH]c(=O)[nH]2)CC1 [Compound 254, 4-[4-[(R)-amino(4,5-dichloro-2-hydroxyphenyl)methyl]piperidine-1-carbonyl]-1,3-dihydroimidazol-2-one trifluoro-acetic acid]
CO[C@H](CO)C(=O)N1CCC([C@@H](N)c2cc(Cl)c(C)cc2O)CC1 [Compound 250, (2R)-1-[4-[(R)-amino(5-chloro-2-hydroxy-4-methylphenyl)methyl]piperidin-1-yl]-3-hydroxy-2-methoxypropan-1-one trifluoroacetic acid]
Cc1cc(O)c([C@H](N)C2CCN(C(=O)c3ccc4c(c3)CC(=O)N4)CC2)cc1Cl [Compound 267, 5-[4-[(R)-amino (5-chloro-2-hydroxy-4-methylphenyl)methyl]piperidine-1-carbonyl]-1,3-dihydroindol-2-one trifluoroacetic acid]
Cc1cc(O)c([C@H](N)C2CCN(C(=O)c3cc(Cl)c(=O)n(C)c3)CC2)cc1Cl [Compound 270, 5-[4-[(R)-amino (5-chloro-2-hydroxy-4-methylphenyl)methyl]piperidine-1-carbonyl]-3-chloro-1-methyl-pyridin-2-one trifluoroacetic acid]
N[C@@H](c1c(O)cc(Cl)c(Cl)c1F)C1CCN(C(=O)c2c[nH]c(=O)c(Cl)c2)CC1 [Compound 266, 5-[4-[(R)-amino(3,4-dichloro-2-fluoro-6-hydroxyphenyl)methyl]piperidine-1-carbonyl]-3-chloro-1H-pyridin-2-one Trifluoroacetic Acid]

IC50, < 30 µM:
NC(c1c(O)ccc(Cl)c1Cl)C1CCNCC1 (stereo not drawn) [Compound 86, 2-[amino(piperidin-4-yl)methyl]-3,4-dichlorophenol Bis(Trifluoroacetic Acid)]
CC(=O)N[C@@H](c1cc(Cl)c(Cl)cc1O)C1CCNCC1 (single isomer, unassigned) [Compound 17]
CCNC(c1cc(Cl)c(Cl)cc1O)C1CCN(C(=O)[C@H](O)CO)CC1 (stereo partly drawn) [Compound 202, (2R)-1-[4-[(4,5-dichloro-2-hydroxyphenyl)(ethylamino)methyl]piperidin-1-yl]-2,3-dihydroxypropan-1-one Trifluoroacetic Acid]

IC50, < 10 µM:
N#Cc1cc(O)c([C@H](N)C2CCN(C(=O)[C@H](O)CO)CC2)cc1Cl [Compound 286, 4-[(R)-amino([1-[(2R)-2,3-dihydroxypropanoyl]piperidin-4-yl])methyl]-2-chloro-5-hydroxybenzonitrile Trifluoroacetic Acid]
N[C@@H](c1cc(Cl)c(Cl)cc1O)C1CC2CC1CN2C(=O)[C@H](O)CO (stereo partly drawn) [Compound 315, (2R)-1-(5-((R)-amino(4,5-dichloro-2-hydroxyphenyl)methyl)-2-azabicyclo[2.2.1]heptan-2-yl)-2,3-dihydroxypropan-1-one Trifluoroacetic Acid]
Cc1cc(O)c([C@H](N)C2CCN(C(=O)c3ccc4[nH]c(=O)oc4c3)CC2)cc1Cl [Compound 271, 6-[4-[(R)-amino(5-chloro-2-hydroxy-4-methylphenyl)methyl]piperidine-1-carbonyl]-3H-1,3-benzoxazol-2-one]
N[C@@H](c1cc(Cl)c(Cl)cc1O)[C@H]1CCC(=O)NC1 (single isomer, unassigned; diastereoisomer 1) [Compound 38, 5-(amino(4,5-dichloro-2-hydroxyphenyl)methyl)piperidin-2-one trifluoroacetic acid diastereoisomer 1]
O=S(=O)([C@@H]1CCNC1)N1CCC([C@H](O)c2cc(Cl)c(Cl)cc2O)CC1 (single isomer, unassigned; isomer 2) [Compound 125, 4,5-dichloro-2-(hydroxy(1-(pyrrolidin-3-ylsulfonyl)piperidin-4-yl)methyl)phenol Isomer 2]
NC(c1cc(Cl)c(Cl)cc1O)C1CCN(CC(F)F)CC1 (stereo not drawn) [Compound 62, 2-(amino(1-(2,2-difluoroethyl)piperidin-4-yl)methyl)-4,5-dichlorophenol Trifluoroacetic Acid]
Cc1[nH]c(=O)ccc1C(=O)N1CCC([C@@H](N)c2cc(Cl)c(Cl)cc2O)CC1 [Compound 230, (R)-5-(4-(amino(4,5-dichloro-2-hydroxyphenyl)methyl)piperidine-1-carbonyl)-6-methylpyridin-2(1H)-one]
CCNC(c1cc(Cl)c(Cl)cc1O)C1CCN(C(=O)C(O)CO)CC1 (stereo not drawn) [Compound 182, 1-[4-[(4,5-dichloro-2-hydroxyphenyl)(ethylamino)methyl]piperidin-1-yl]-2,3-dihydroxypropan-1-one Trifluoroacetic Acid]
Cc1ccc(S(=O)(=O)N2CCC(C(N)c3cc(Cl)c(Cl)cc3O)CC2)cc1 (stereo not drawn) [Compound 35, 2-(amino(1-tosylpiperidin-4-yl)methyl)-4,5-dichlorophenol]
O=C([C@H]1CCNC1)N1CCC[C@@H]([C@@H](O)c2c(O)ccc(Cl)c2Cl)CC1 (single isomer, unassigned; isomer 3) [Compound 323]
NC(c1cc(Cl)c(Cl)cc1O)C1CCN(C(=O)NC2CC2)CC1 (stereo not drawn) [Compound 57, 4-(amino(4,5-dichloro-2-hydroxyphenyl)methyl)-N-cyclopropylpiperidine-1-carboxamide]
CC1(C(N)c2cc(Cl)c(Cl)cc2O)CCN(C(=O)[C@H](O)CO)CC1 (stereo partly drawn) [Compound 309, (2R)-1-[4-[amino(4,5-dichloro-2-hydroxyphenyl)methyl]-4-methylpiperidin-1-yl]-2,3-dihydroxypropan-1-one Trifluoroacetic Acid]
Nc1cnc(C(=O)N2CCC([C@@H](N)c3cc(Cl)c(Cl)cc3O)CC2)cn1 [Compound 307, 2-[(R)-amino[1-(5-aminopyrazine-2-carbonyl)piperidin-4-yl]methyl]-4,5-dichlorophenol trifluoroacetic acid]
CC(=O)NC(c1cc(Cl)c(Cl)cc1O)C1CCN(C(=O)[C@@H]2CCNC2)CC1 (stereo partly drawn) [Compound 108, N-((4,5-dichloro-2-hydroxyphenyl)(1-((R)-pyrrolidine-3-carbonyl)piperidin-4-yl)methyl)acetamide Trifluoroacetic Acid]
N[C@@H](c1cc(Cl)c(Cl)cc1O)C1C2CCC1CN(C(=O)[C@H](O)CO)C2 (stereo partly drawn) [Compound 313, (2R)-1-[8-[(R)-amino(4,5-dichloro-2-hydroxyphenyl)methyl]-3-azabicyclo[3.2.1]octan-3-yl]-2,3-dihydroxypropan-1-one Trifluoroacetic Acid]
NC(c1cc(Cl)c(Cl)c(F)c1O)C1CCN(C(=O)[C@H](O)CO)CC1 (stereo partly drawn) [Compound 290, (2R)-1-[4-[amino(4,5-dichloro-3-fluoro-2-hydroxyphenyl)methyl]piperidin-1-yl]-2,3-dihydroxypropan-1-one Trifluoroacetic Acid]
N[C@@H](c1cc(Cl)c(Cl)cc1O)[C@@H]1CCCN(C(=O)[C@H](O)CO)C1 [Compound 329, (2R)-1-[(3R)-3-[(R)-amino(4,5-dichloro-2-hydroxyphenyl)methyl]piperidin-1-yl]-2,3-dihydroxypropan-1-one Trifluoroacetic Acid]
N[C@@H](c1cc(Cl)c(Cl)cc1O)C1CCN(C(=O)C2CNCC2(F)F)CC1 (stereo partly drawn) [Compound 113, (4-((R)-amino(4,5-dichloro-2-hydroxyphenyl)methyl)piperidin-1-yl)(4,4-difluoropyrrolidin-3-yl)methanone]
O=C(NC(c1cc(Cl)c(Cl)cc1O)C1CCNCC1)C(F)(F)F (stereo not drawn) [Compound 22, N-((4,5-dichloro-2-hydroxyphenyl)(piperidin-4-yl)methyl)-2,2,2-trifluoroacetamide]
NC(c1cc(Cl)c(Cl)cc1O)C1CCN(C(=O)C(F)(F)F)CC1 (stereo not drawn) [Compound 77, 1-[4-[amino(4,5-dichloro-2-hydroxyphenyl)methyl]piperidin-1-yl]-2,2,2-trifluoroethan-1-one Trifluoroacetic Acid]
CC(O)(c1cc(Cl)c(Cl)cc1O)C1CCNCC1 (stereo not drawn) [Compound 3, 4,5-dichloro-2-[1-hydroxy-1-(piperidin-4-yl)ethyl]phenol]
N[C@H](c1cc(Cl)c(Cl)cc1O)[C@@H]1CCN(C(=O)[C@H](O)CO)C1 [Compound 310, (2R)-1-[(3R)-3-[(S)-amino(4,5-dichloro-2-hydroxyphenyl)methyl]pyrrolidin-1-yl]-2,3-dihydroxypropan-1-one]
